Five compounds from patent US20040072825A1, “2-(2-(4-((2r)-2-methyl-3-(10h-phenothiazin-10-yl)propyl)-1-piperazinyl)-ethoxy) ethanol, process for the preparation thereof, pharmaceutical compositions containing said compound and therapeutic uses thereof” (priority 2000, published 2004) can be followed below.

Data set [1] deals with T1, human D3 dopaminergic receptor (Homo sapiens, UniProt P35462).
T1 construct: expressed in transfected cells; host or cells: CHO
Nature of the data set: Radioligand binding, human D3 receptor (CHO cell culture). The conditions noted are these: for IC50: D3, competitive binding, read-out: Affinity pIC50 (-log IC50) (converted). The method, then:
(§1) The test substances, biological materials and experimental protocols used in the study are described in Moguilevsky N. et al. (1994) Eur. J. […] List S. J. (1981) Proc. Natl. Acad. Sci.78:2620-2624; MacKenzie R. G. et al. (1994) Eur. J. Pharmacol. 266:79-85; Van Tol et al., (1992) Nature, 358:149-152. […] Filtermat A, Walac), then washed with cold buffer using a filtration unit ‘Cell Harvester’ (Brandel, Packard or Tomtec). The bound radioactivity is measured using a scintillation liquid (Formula 989 or Microscint 0, Packard) or solid (Meltilex B/HS, Wallac), and a scintillation counter (LS 6000, Beckman; Topcount, Packard; Betaplate, Wallac). […] Each experiment was performed in duplicate (n=2). In parallel, a positive control (concentration of reference substance causing 50% inhibition of radioligand specific binding) is tested to validate the assay. For competition experiments, membranes are incubated in the buffer containing the radioligand and increasing concentrations of unlabeled test substances. Each binding assay is validated with a reference compound tested in parallel. […] where BO and BI represent the total binding in the absence and presence of the unlabelled drug (in dpm/assay) and NSB is the amount of non specific binding (in dpm/assay). Analysis of raw data and pIC50 calculation is performed by computerized non-linear curve fitting methods using a set of equations describing competitive interactions between labelled and unlabeled ligands which obey the law of mass action. IC50 represents the concentration of the test substance inhibiting 50% of the specific binding of the radioligand. It is determined in competitive binding experiments by measuring the binding of a single concentration of a radioactive ligand at equilibrium with various concentrations of the unlabeled test substance. pIC50=−log IC50

In data set [2] the test system is vomiting induced by cisplatin in ferrets. Description: Cisplatin-induced emesis in ferrets, single oral administration. The class given is in vivo, ferret. The settings on record: for Proportion of animal vomiting: 60 min before cisplatin i.v., 5 h observation. Here is the method: Cisplatin-induced emesis in ferrets is largely considered as the most suitable animal model for the study of drug activity against chemotherapy-induced vomiting in man (Georges L. King. Animal models in the study of vomiting. Can. J. Physiol. Pharmacol. 68, 260-268, 1988).
Three compounds, dixyrazine dihydrochloride and its (R) and (S) enantiomers were tested for their activity against vomiting induced by cisplatin in ferrets following single oral administration.
The study involved 14 groups of 8 male ferrets weighing between 0.93 kg and 1.45 kg purchased from the company MARSHALL FARMS (NEW YORK, U.S.). Groups were defined as follows: […]
group 1: control group dosed with the vehicle of test substances (sterile water),
group 2: method-control group dosed with a method-control substance, granisetron ([…], RBI®), at a dose of 0.3 mg/kg,
group 3 to 6: group dosed with diyyrazine dihydrochloride at 4 increasing doses of 7.5, 15, 30 and 60 mg/kg,
group 7 to 10: group dosed with the (R) enantiomer of dixyrazine dihydrochloride at 4 increasing doses of 7.5, 15, 30 and 60 mg/kg,
group 11 to 14: group dosed with the (S) enantiomer of drazine dihydrochloride at 4 increasing doses of 7.5, 15, 30 and 60 mg/kg.
On the day prior to the test, animals were fasted and allowed access only to water.
On the morning of the day of the study, free access to food was allowed for 30 minutes. Subsequently, animals were again put on to a water-only fast for 30 minutes before administration of the three compounds, the vehicle or the method-control substance which were administrated orally in a volume of 5 ml/kg.
Cisplatin was administrated by the intravenous route at a dose of 115 mg/m^2 and in a volume of 115 ml/m^2 (i.e. approximately at 10 mg/kg), 60 minutes after treatment. […] Emesis was characterised by abdominal contractions, which were associated with expulsion or attempted expulsion of stomach contents.
The time to onset of emesis was noted. The number of episodes of vomiting and the number of abdominal retches associated with episodes of emesis were also noted.

The target in data set [3] is human H1 histaminic receptor (Homo sapiens, UniProt P35367). Nature of the data set: Radioligand binding, human H1 receptor (CHO cell culture). The settings on record: for IC50: H1, competitive binding, read-out: Affinity pIC50 (-log IC50) (converted). Here is the method: as §1
Data set [4] concerns the target T2, 5-HT2 serotonergic receptor (Rattus norvegicus, UniProt P14842).
T2 construct: the rat cerebral cortex (5-HT2 receptor); from tissue; host or cells: rat cerebral cortex
Nature of the data set: Radioligand binding, 5-HT2 receptor (rat cerebral cortex). The conditions noted are these: for IC50: 5-HT2, competitive binding, read-out: Affinity pIC50 (-log IC50) (converted). The method, then: as §1

The target of data set [5] is T3, D4.4 dopaminergic receptor (Homo sapiens, UniProt P21917).
T3 construct: expressed in transfected cells; host or cells: CHO
T3 sequence (P21917 1-419): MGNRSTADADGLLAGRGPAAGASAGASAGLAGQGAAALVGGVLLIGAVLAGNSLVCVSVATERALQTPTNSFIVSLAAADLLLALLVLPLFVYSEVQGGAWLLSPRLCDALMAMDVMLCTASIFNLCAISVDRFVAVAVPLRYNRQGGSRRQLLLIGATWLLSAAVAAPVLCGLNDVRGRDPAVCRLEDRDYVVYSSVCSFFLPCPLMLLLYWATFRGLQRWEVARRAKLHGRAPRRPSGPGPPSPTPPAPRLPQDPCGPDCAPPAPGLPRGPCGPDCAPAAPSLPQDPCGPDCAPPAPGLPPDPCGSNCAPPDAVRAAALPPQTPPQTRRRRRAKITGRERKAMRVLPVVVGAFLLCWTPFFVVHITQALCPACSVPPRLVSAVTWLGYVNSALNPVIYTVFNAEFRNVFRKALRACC
Description: Radioligand binding, D4.4 receptor (CHO cell culture). The settings on record: for IC50: D4.4, competitive binding, read-out: Affinity pIC50 (-log IC50) (converted). The method, then:
as §1

Another data set concerns the target D2 dopaminergic receptor (Rattus norvegicus, UniProt P61169). Description: Radioligand binding, D2 receptor (rat striatum membranes). The settings on record: for IC50: D2, competitive binding, read-out: Affinity pIC50 (-log IC50) (converted). Here is the method:
as §1

Where [6] appears, read: highest dose of 60 mg/kg p.o., dihydrochloride, 60 mg/kg.
[7] abbreviates: highest dose of 60 mg/kg p.o., listed as (R) enantiomer of dixyrazine dihydrochloride, dihydrochloride, 60 mg/kg.

Marks after values point to notes of the source that are not given here.

Sequence of D2 dopaminergic receptor (P61169 1-415 isoform P61169-2): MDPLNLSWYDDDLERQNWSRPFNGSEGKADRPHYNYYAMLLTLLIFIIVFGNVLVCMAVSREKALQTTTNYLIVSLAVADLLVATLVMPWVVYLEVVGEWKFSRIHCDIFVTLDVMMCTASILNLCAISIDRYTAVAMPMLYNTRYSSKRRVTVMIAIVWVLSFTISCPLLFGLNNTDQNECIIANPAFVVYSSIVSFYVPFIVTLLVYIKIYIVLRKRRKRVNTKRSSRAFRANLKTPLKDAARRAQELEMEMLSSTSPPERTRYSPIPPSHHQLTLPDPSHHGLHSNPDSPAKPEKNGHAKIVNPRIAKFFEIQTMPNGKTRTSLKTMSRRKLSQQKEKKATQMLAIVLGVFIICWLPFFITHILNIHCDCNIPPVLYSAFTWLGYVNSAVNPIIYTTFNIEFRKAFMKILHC
T1 sequence (P35462 whole entry): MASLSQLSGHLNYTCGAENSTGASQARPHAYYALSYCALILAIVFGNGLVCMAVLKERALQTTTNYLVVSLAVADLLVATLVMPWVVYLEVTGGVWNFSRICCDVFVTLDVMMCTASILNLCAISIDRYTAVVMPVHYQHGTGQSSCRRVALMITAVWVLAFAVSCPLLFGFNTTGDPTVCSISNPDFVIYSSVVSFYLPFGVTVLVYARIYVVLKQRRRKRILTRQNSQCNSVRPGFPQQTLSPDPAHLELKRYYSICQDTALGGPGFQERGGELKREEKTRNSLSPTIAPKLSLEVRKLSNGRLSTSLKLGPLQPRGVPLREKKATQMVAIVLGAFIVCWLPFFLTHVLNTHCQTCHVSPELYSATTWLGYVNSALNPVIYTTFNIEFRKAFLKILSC
T2 sequence (P14842 whole entry): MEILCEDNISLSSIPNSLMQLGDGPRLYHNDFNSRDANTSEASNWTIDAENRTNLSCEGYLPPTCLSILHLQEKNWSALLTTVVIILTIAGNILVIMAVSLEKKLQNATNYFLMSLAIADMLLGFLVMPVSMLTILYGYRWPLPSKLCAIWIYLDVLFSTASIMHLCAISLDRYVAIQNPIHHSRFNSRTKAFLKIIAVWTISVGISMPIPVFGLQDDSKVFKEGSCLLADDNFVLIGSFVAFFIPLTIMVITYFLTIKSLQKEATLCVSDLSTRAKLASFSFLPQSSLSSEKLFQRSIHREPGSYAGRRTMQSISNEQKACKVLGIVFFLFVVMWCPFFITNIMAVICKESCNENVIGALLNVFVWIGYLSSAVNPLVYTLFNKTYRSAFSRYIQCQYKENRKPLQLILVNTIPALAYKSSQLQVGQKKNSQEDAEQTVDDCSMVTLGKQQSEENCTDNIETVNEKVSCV
Sequence of human H1 histaminic receptor (P35367 whole entry): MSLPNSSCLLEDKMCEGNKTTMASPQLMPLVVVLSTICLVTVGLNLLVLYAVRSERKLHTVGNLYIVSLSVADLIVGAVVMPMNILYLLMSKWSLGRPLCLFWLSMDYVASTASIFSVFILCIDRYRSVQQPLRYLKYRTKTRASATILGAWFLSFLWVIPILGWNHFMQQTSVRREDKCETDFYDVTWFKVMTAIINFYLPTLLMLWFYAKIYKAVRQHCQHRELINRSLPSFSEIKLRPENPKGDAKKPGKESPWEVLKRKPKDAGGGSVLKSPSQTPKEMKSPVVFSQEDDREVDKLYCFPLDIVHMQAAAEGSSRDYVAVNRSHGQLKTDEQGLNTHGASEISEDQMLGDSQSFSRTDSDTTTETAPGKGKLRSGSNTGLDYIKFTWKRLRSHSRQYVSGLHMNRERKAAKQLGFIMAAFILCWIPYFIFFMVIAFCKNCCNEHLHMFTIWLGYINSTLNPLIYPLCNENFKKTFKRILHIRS

On to `C[C@@H](CN1CCN(CCOCCO)CC1)CN1c2ccccc2Sc2ccccc21.Cl.Cl` [(S) enantiomer dihydrochloride, 2-(2-{4-[(2S)-2-Methyl-3-(10H-phenothiazin-10-yl)propyl]-1-piperazinyl}ethoxy)ethanol dihydrochloride], for which the 50% inhibitory concentration (IC50) (in general, the point on the concentration scale where inhibition reaches its midpoint) in data set [1] is 3160 nM; in data set [3], 5.01 nM; in data set [4], 63.1 nM; in data set [5], 25100 nM; on D2 dopaminergic receptor it was 794 nM. Also, the “Time to onset of emesis” value was 87 min in data set [2] (7.5 mg/kg p.o.), 87 min in data set [2] (15 mg/kg p.o.), 82 min in data set [2] (30 mg/kg p.o.) and 68* minutes in data set [2] (60 mg/kg p.o.). For the same compound, the “Proportion of animal vomiting” value in data set [2] (7.5 mg/kg p.o.) is reported as 8/8; in data set [2] (15 mg/kg p.o.), 8/8; in data set [2] (30 mg/kg p.o.), 7/8; in data set [2] (60 mg/kg p.o.) it was 7/8. Further, the “pro-emetic properties (in words)” value in data set [2] (cisplatin-treated ferrets) was “undesirable pro-emetic properties”. Further, in data set [2] (highest dose of 60 mg/kg p.o.), the “effect on time to onset of emesis (in words)” value (“effect on time to onset” below) is “statistically significant decrease in the time of onset of emesis”. Also, the “antiemetic effect (in words)” value in data set [2] (whatever the dose tested (7.5 to 60 mg/kg p.o.), dihydrochloride) is “no antiemetic effect”; in data set [2] (whatever the dose tested (7.5 to 60 mg/kg p.o.), listed as (S) enantiomer of dixyrazine dihydrochloride, dihydrochloride), “inactive in preventing cisplatin-induced emesis”.

Take `C[C@H](CN1CCN(CCOCCO)CC1)CN1c2ccccc2Sc2ccccc21` [(R) enantiomer (free base), 2-(2-{4-[(2R)-2-methyl-3-(10H-phenothiazin-10-yl)propyl]-1-piperazinyl}ethoxy)ethanol]: the inhibition (usually the drop in the measured response relative to a control, in per cent) at 0.1 µM came to 81% in data set [1] (D3, 0.1 μM, mean of duplicate, read-out: percent inhibition of control specific binding) and 40% in data set [5] (D4.4, 0.1 μM, mean of duplicate, read-out: percent inhibition of control specific binding). Besides, the inhibition at 10 µM in data set [1] (D3, 10 μM, mean of duplicate, read-out: percent inhibition of control specific binding) turned out to be 100%; in data set [3] (H1, 10 μM, mean of duplicate, read-out: percent inhibition of control specific binding), 101%; in data set [4] (read-out: percent inhibition of control specific binding, 5-HT2, 10 μM, mean of duplicate), 102%; in data set [5] (D4.4, 10 μM, mean of duplicate, read-out: percent inhibition of control specific binding) it was 99%; at D2 dopaminergic receptor (D2, 10 μM, mean of duplicate, read-out: percent inhibition of control specific binding) it was 100%.

Turning to `CN1C2CCCC1CC(NC(=O)c1nn(C)c3ccccc13)C2` (centres unmarked) [Granisetron, reference compound], in data set [2] (0.3 mg/kg p.o.), the “Time to onset of emesis” value is 160* minutes, the “antiemetic effect (in words)” value is reported as “significant antiemetic effect” and the “Proportion of animal vomiting” value was 3/8*. The “suppression of vomiting, number of animals” value in data set [2] (0.3 mg/kg p.o., 1 hour before cisplatin i.v.) is reported as 5 animals out of 8. The “effect on time to onset” value in data set [2] (0.3 mg/kg p.o., the 3 animals that still vomited) was “increase in the time to onset of emesis”.

On to `C[C@@H](CN1CCN(CCOCCO)CC1)CN1c2ccccc2Sc2ccccc21` (single isomer, unassigned) [(S) enantiomer (free base)], for which the “percent inhibition of control specific binding” value was “— (Symbol-represents an inhibition<10%)” in data set [1] (D3, 0.2 μM, mean of duplicate); 74% in data set [1] (D3, 10 μM, mean of duplicate); 101% in data set [3] (H1, 10 μM, mean of duplicate); 101% in data set [4] (5-HT2, 10 μM, mean of duplicate); “— (Symbol-represents an inhibition<10%)” in data set [5] (D4.4, 0.2 μM, mean of duplicate); 27% in data set [5] (D4.4, 10 μM, mean of duplicate). Further, the “percent inhibition of control specific binding” value at D2 dopaminergic receptor (D2, 10 μM, mean of duplicate) was 89%.

As for `C[C@H](CN1CCN(CCOCCO)CC1)CN1c2ccccc2Sc2ccccc21.Cl.Cl` [(R) enantiomer dihydrochloride, 2-(2-{4-[(2R)-2-methyl-3-(10H-phenothiazin-10-yl)propyl]-1-piperazinyl}ethoxy)ethanol dihydrochloride], the IC50 in data set [1] is 50.1 nM; in data set [3] it was 0.2 nM; in data set [4] it was 3.98 nM; in data set [5], 158 nM; on D2 dopaminergic receptor, 2.51 nM. The Stereoselectivity ratio in data set [1] (D3, IC50 of (S) enantiomer/IC50 of (R) enantiomer) is on record as 63; in data set [3] (H1, IC50 of (S) enantiomer/IC50 of (R) enantiomer) it was 25; in data set [4] (5-HT2, IC50 of (S) enantiomer/IC50 of (R) enantiomer), 16; in data set [5] (D4.4, IC50 of (S) enantiomer/IC50 of (R) enantiomer), 158; at D2 dopaminergic receptor (D2, IC50 of (S) enantiomer/IC50 of (R) enantiomer), 316. Besides, the “Time to onset of emesis” value is 81 min in data set [2] (7.5 mg/kg p.o.), 80 min in data set [2] (15 mg/kg p.o.), 81 min in data set [2] (30 mg/kg p.o.) and 134 min in data set [2] (60 mg/kg p.o.). The “Proportion of animal vomiting” value in data set [2] (7.5 mg/kg p.o.) was 5/8; in data set [2] (15 mg/kg p.o.), 8/8; in data set [2] (30 mg/kg p.o.), 5/8; in data set [2] (60 mg/kg p.o.) it was 4/8*. For the same compound, the “suppression of vomiting, number of animals” value in data set [2] (60 mg/kg p.o.) is reported as 4 animals out of 8. The figures for the “antiemetic effect (in words)” value in data set [2] (setting [6]) and in data set [2] (setting [7]) were “induced an antiemetic effect” and “significantly reduce cisplatin-induced emesis”, respectively. Further, the “effect on time to onset” value in data set [2] (setting [6]) is recorded as “a tendency to increase the time to onset of emesis”; in data set [2] (setting [7]) it was “clear tendency to delay the latency to onset of the first vomiting episode”.
